# “Also recorded” adds a separate entry of the source.
# Columns and labels:
# [1] = Cocaine interaction crossover study: pharmacokinetics
# Procedure: This was a double-blind, placebo-controlled, randomized, crossover study of non-treatment-seeking subjects with cocaine use disorder (CUD). […] On the last day of each dosing week, subjects received 40 mg IV cocaine. Primary outcomes were safety and pharmacokinetics (PK).
# • Subjects: Non-treatment seeking subjects with cocaine use disorder, ages 21-55 • Design: Single center, randomized, double-blind (DB), placebo-controlled (PLB), 2-period crossover design • Dosing: • One week of dosing with MET/OX (EMB-001) and one week of placebo, separated by one-week washout (randomized, DB, counterbalanced) • 40 mg IV cocaine & saline infusions on 7th day of dosing of MET/OX and placebo • Dose of MET/OX: 720 mg MET & 24 mg OX, BID • Primary Objective: Safety of MET/OX when co-administered with cocaine • Secondary Objectives: • Effects of MET/OX on PK of cocaine • Effects of cocaine on PK of MET/OX • Exploratory Objective: • Effects of MET/OX on measures of craving and subjective effects produced by cocaine
# [2] = system: adult male Wistar rats; assay: Cue-induced reinstatement of extinguished cocaine seeking; assay type: in vivo, rat; conditions: for reinstatement of extinguished cocaine seeking: pretreatment with the drug alone, general statement
# Procedure: The experiments described herein were designed to investigate whether or not drug combinations identified as effective in reducing cocaine self-administration would also block the ability of conditioned cues to reinstate extinguished cocaine-seeking behavior. Adult male Wistar rats were implanted with chronic jugular catheters and trained to self-administer cocaine (0.25 mg/kg/infusion) by pressing one of the response levers in the experimental chamber (i.e., the “active” or “cocaine” lever) under a fixed-ratio four (FR4) schedule of reinforcement during daily 2-hour sessions conducted 5 days per week. At the start of each session, both levers were extended into the chamber and the stimulus light above the active lever was illuminated to indicate the availability of cocaine. […] A 20-second timeout period followed each infusion. The stimulus light above the active lever and the house light and tone compound stimulus were extinguished during the timeout period, and the light above the active lever was illuminated once the timeout ended. When responding on the active lever varied less than 20% for two consecutive days, the response requirement was increased to FR2. When similar stability was observed under the FR2 schedule or reinforcement, the response requirement was increased to the final ratio of four. The criteria for stable responding under the FR4 schedule of reinforcement was a minimum of 10 days of exposure to this schedule that concluded with at least three consecutive days when responding varied by less than 10%. […] Once stable cocaine self-administration was observed, rats were exposed to extinction; the rats were placed into the behavioral chambers, but responding on the “cocaine” (active) lever produced no programmed consequences. Extinction training continued until responding decreased to less than 20% of baseline self-administration. Then reinstatement testing commended. The rats were placed into the experimental chambers, both response levers were extended into the chamber, and the stimulus light above the “active” lever was illuminated as during self-administration training. […] Responding on the “active” lever during reinstatement testing was taken as an index of cocaine-seeking behavior. Each experimental group consisted of 8 to 10 rats.
# [3] = system: adult male Wistar rats; assay: Intravenous cocaine self-administration under a multiple, alternating schedule of food reinforcement and cocaine self-administration; assay type: in vivo, rat
# Procedure: Adult male Wistar rats were trained under a multiple, alternating schedule of cocaine and food self-administration. This schedule consisted of alternating periods of cocaine access and food reinforcement. In some instances, as described further below, three doses of cocaine (0.125, 0.25, or 0.50 mg/kg/infusion) were tested. Rats were also periodically trained with saline substitution (cocaine extinction) and food extinction during the same session.
# In our model, rats were exposed to alternating 15-minute periods of access to cocaine self-administration and food reinforcement. Food was used to control for potential nonspecific, ataxis effects of the drugs and combinations.
# More specifically, adult male Wistar rats were implanted with chronic jugular catheters. Following recovery from surgery, the rats were trained to respond under a multiple, alternating schedule of food reinforcement and cocaine self-administration. Food-maintained responding was used to control for the non-specific motor effects of the various treatments. During the food component of the schedule, the stimulus light located above the food response lever was illuminated to indicate the availability of food reinforcement. […] A 25-second timeout followed the delivery of each food pellet. During this timeout, the stimulus light was darkened and responses on the food lever were counted but had no scheduled consequences. Responding on the other (cocaine) lever during the food component also had no scheduled consequences. […] Following 15 minutes of access to food, all stimulus lights in the chamber were darkened for a 1-minute timeout. Following the timeout, the stimulus light above the cocaine response lever was illuminated to indicate the availability of cocaine (0.125, 0.25, or 0.5 mg/kg/infusion). […] A 20-second timeout period followed each infusion. […] After 15 minutes of access to cocaine and a 1-minute timeout, the rats were again allowed 15 minutes access to the food component of the schedule. Access to food and cocaine alternated in this manner every 15 minutes during the two hour behavioral sessions so that each rat was exposed to food and cocaine for four 15-minute periods each. Each behavioral session began with 15 minutes access to either food or cocaine, and this alternated daily. Stable baselines of responding were established when the total number of cocaine and food presentations, as well as the number of presentations during each of the four exposures each session, varied less than 10% for three consecutive sessions. At least three different doses of cocaine (e.g., 0.125, 0.25, and 0.5 mg/kg/infusion) were tested. Rats were first trained to self-administer 0.25 mg/kg/infusion, our standard dose of cocaine. When responding stabilized, the dose was changed to 0.125 or 0.5 mg/kg/infusion as appropriate.
# Once stable baselines of responding were obtained, dose-response curves for the various compounds were individually generated for each rat. Rats were treated with each dose at least twice with a minimum of two days of baseline cocaine self-administration interspersed between each test. Each group of rats was tested with only two of the test compounds to minimize potential carryover effects. […] This rationale guided the selection of the doses of each of the compounds in the combination studies. Each experimental group consisted of between 8 and 10 rats.
# [4] = system: male Wistar rats; assay: Forced Swim Test (FST), animal model of depression
# [5] = rat, in vivo
# Procedure: Adult male Wistar rats (90 to 120 days old) were implanted with chronic, indwelling jugular catheters and were allowed to recover from surgery. […] Thirty minutes following the drug combination or vehicle injection, the rats received intravenous injections of cocaine (0.25 mg/kg/infusion) every 2 minutes for 1 hour. After the final injection of cocaine, blood was collected from the catheter for the analysis of cocaine and its metabolites ecgonine methyl ester and benzoylecgonine. […] All drug concentrations were determined using GCMS procedures.
# [6] = system: male Wistar rats; assay: Cocaine self-administration following adrenalectomy, with plasma CORT and ACTH; assay type: in vivo, rat
# Procedure: Subjects: Male Wistar rats were housed in an AALAC-approved animal care facility and maintained at 85-90% of their free-feeding body weights. These rats were on a reversed 12-hour light, 12-hour dark cycle from the beginning of the experimental procedures.
# Catheter surgery: A chronic indwelling jugular catheter (0.012 in i.d.×0.025 in o.d., silicone tubing) was implanted in each rat under pentobarbital anesthesia (50 mg/kg ip) with methyl atropine nitrate pretreatment (10 mg/kg ip). The animals were injected with sterile penicillin G procaine suspension (75,000 units, im) immediately before surgery and allowed 5-7 days to recover.
# Adrenalectomy surgery: Animals were anesthetized with pentobarbital (50 mg/kg ip) with methyl atropine nitrate pretreatment (10 mg/kg ip). The adrenal glands were located through an incision and removed. The animals were injected with sterile penicillin G procaine suspension (75,000 units, im) and allowed to recover from surgery for 7 days. After ADX, the rats received drinking water containing 0.9% saline and 1.0% sucrose. Animals in the SHAM group received the same surgery except that the adrenal glands were not removed. They continued to receive tap water to drink.
# Equipment: Sound-attenuating operant conditioning chambers (Med-Associates, Inc.) were equipped with two response levers and a stimulus light located directly above each lever. A food pellet dispenser was located between the levers. […] An IBM-compatible personal computer and interface system was used to program the procedure and collect the experimental data.
# Alternating Schedule of Cocaine and Food Reinforcement: Following recovery from catheter surgery, the rats were trained to respond under a multiple, alternating schedule of food reinforcement and cocaine self-administration. […]
# Hormone Measurements: Blood was collected via the implanted catheters at the end of the behavioral test sessions for the measurement of plasma CORT and adrenocorticotropin releasing hormone (ACTH). […] Plasma CORT and ACTH (ng/ml) were subsequently determined by radioimmunoassay.
# [7] = smoking cessation (Nides et al. 2006); cited from earlier work
# [8] = system: Wistar-derived male rats; assay: Intravenous nicotine self-administration, fixed-ratio schedule (FR1, TO-20 s); assay type: in vivo, rat
# Procedure: Animals: Wistar-derived male rats (250-300 g) were purchased from Harlan Laboratories (Livermore, Calif.), housed in groups of two, and maintained in a temperature-controlled environment on a 12 h:12 h light cycle. Before testing, animals were provided free access to food and water during a one-week habituation period, and were handled daily for several days to desensitize them to handling stress. Each rat included in the data analysis received all treatments in order to obtain reliable estimates of drug effects and decrease the impact of inter-animal variability. Animals were handled, housed, and sacrificed in accord with the current NIH guidelines and all applicable local, state, and federal regulations and guidelines.
# Varenicline-HCl (Ontario Chemicals), at 1 mg/kg (expressed as free base), was used as a positive control and administered subcutaneously. Nicotine hydrogen tartrate (Sigma Aldrich) was dissolved in isotonic saline at 0.3 mg/mL (expressed as free base), adjusted to pH 7.0, and diluted to deliver 0.03 mg/kg/infusion. All test compounds were administered 30 minutes prior to nicotine self-administration sessions in a volume of 1 mL/kg.
# Apparatus: Food training and nicotine self-administration took place in 8 standard Coulbourn™ operant conditioning chambers. Each chamber was housed in a sound-attenuating chamber. […]
# [9] = after 40 mg IV cocaine, + EMB-001
# [10] = after 40 mg IV cocaine, + Placebo
# [11] = high dose of the drug alone, ip
# [12] = low, ineffective dose of the drug alone, ip
# [13] = pretreatment with the drug alone, general statement
compound,measurement,setting,value
"CN1[C@H]2CC[C@@H]1[C@@H](C(=O)O)[C@@H](OC(=O)c1ccccc1)C2 [Benzoylecgonine, benzoylecgonine]",AUC 0-∞,[1]; [9],3080 ± 689 ng·h/mL
same,Cmax,[1]; [9],198 ± 55 ng/mL
same,AUC 0-∞,[1]; [10],2970 ± 720 ng·h/mL
same,Cmax,[1]; [10],199 ± 45 ng/mL
"CCCCN(CC)c1nc(C)nc2c1c(C)cn2-c1c(C)cc(C)cc1C [CP-154,526]",reinstatement of extinguished cocaine seeking,[2],decrease
same,cocaine self-administration (number of cocaine infusions),[3]; [11],reduced cocaine self-administration
same,food-maintained responding,[3]; [11],without affecting food-maintained responding
same,cocaine self-administration (number of cocaine infusions),[3]; [12],did not significantly affect
same,food-maintained responding,[3]; [12],did not significantly affect
same,cocaine self-administration,[3]; [13],decrease
"COC(=O)[C@@H]1[C@H]2CC[C@@H](C[C@@H]1O)N2C [Ecgonine Methyl Ester, ecgonine methyl ester]",AUC 0-∞,[1]; [9],244 ± 50 ng·h/mL
same,Cmax,[1]; [9],20.5 ± 3.7 ng/mL
same,AUC 0-∞,[1]; [10],234 ± 45 ng·h/mL
same,Cmax,[1]; [10],21.5 ± 3.7 ng/mL
Cc1nnc2n1-c1ccc(Cl)cc1C(c1ccccc1)=NC2 [alprazolam],reinstatement of extinguished cocaine seeking,[2],decrease
same,cocaine self-administration (number of cocaine infusions),[3]; [11],reduced cocaine self-administration
same,food-maintained responding,[3]; [11],without affecting food-maintained responding
same,cocaine self-administration (number of cocaine infusions),[3]; [12],did not significantly affect
same,food-maintained responding,[3]; [12],did not significantly affect
same,cocaine self-administration,[3]; [13],decrease
CC(=O)N1CCN(c2ccc(OCC3COC(Cn4ccnc4)(c4ccc(Cl)cc4Cl)O3)cc2)CC1 (stereo not drawn) [ketoconazole],reinstatement of extinguished cocaine seeking,[2],decrease
same,minimally effective dose (reduces cocaine self-administration by at least 50% without affecting food-maintained responding),[3]; drug alone,25 mg/kg
same,cocaine self-administration (number of cocaine infusions),[3]; [12],no effect; also recorded: did not significantly affect
same,food-maintained responding,[3]; [12],no effect; also recorded: did not significantly affect
same,cocaine self-administration,[3]; [13],decrease
CC(C)(c1cccnc1)C(O)c1cccnc1 (stereo not drawn) [metyrapol],food-maintained responding,"[3]; 25, 50, 100 and 150 mg/kg ip 30 min before",not significantly affected except at the highest doses
same,cocaine self-administration,"[3]; 25, 50, 100 and 150 mg/kg ip 30 min before, cocaine 0.125, 0.25, 0.5 mg/kg/infusion",dose dependently decreased
same,AUC 0-∞,"[1]; human, in vivo",5480 ± 4840 ng·h/mL
same,Cmax,"[1]; human, in vivo",1850 ± 1570 ng/mL
CC(C)(C(=O)c1cccnc1)c1cccnc1 [metyrapone],cue-induced reinstatement (responding on the active lever),"[2]; chronic, 50 mg/kg, ip, once per day for 14 days",reduced cocaine seeking to levels seen when only saline was delivered
same,reinstatement of extinguished cocaine seeking,[2],decrease
same,immobility in the FST,"[4]; acute and chronic administration, alone and in combination, oxazepam 5 or 10, metyrapone 25 or 50 mg/kg",effective in reducing immobility
same,immobility time,"[4]; chronic, metyrapone 50 mg/kg alone (Met50 group)",showed a lessening of immobility time
same,group means of immobility time relative to vehicle (tolerance),[4]; chronically treated groups that received only Ox or Met,equal to or exceeded the vehicle
same,plasma concentration in the presence of cocaine,[5],did not affect
same,influence on plasma concentration of the other drug,[5]; ip,did not influence
same,cocaine self-administration (number of cocaine infusions),[3]; [11],reduced cocaine self-administration
same,food-maintained responding,[3]; [11],without affecting food-maintained responding
same,cocaine self-administration (number of cocaine infusions),[3]; [12],did not significantly affect
same,food-maintained responding,[3]; [12],did not significantly affect
same,plasma corticosterone,[3]; pretreatment with the drug alone,significant dose-related decreases
same,cocaine self-administration,[3]; [13],decrease; also recorded: significant dose-related decreases
same,blocking cocaine self-administration following adrenalectomy compared to pre-adrenalectomy values,"[6]; MET 50, OX 5, OX 10 mg/kg and combinations","as effective, and possibly even more effective"
same,plasma ACTH,[6]; before adrenalectomy,not changed
same,plasma corticosterone,[6]; before adrenalectomy,not changed
same,AUC 0-∞,"[1]; human, in vivo",900 ± 492 ng·h/mL
same,Cmax,"[1]; human, in vivo",429 ± 234 ng/mL
NCc1cc(=O)[nH]o1 [muscimol],cocaine self-administration (number of cocaine infusions),[3]; [11],reduced cocaine self-administration
same,food-maintained responding,[3]; [11],without affecting food-maintained responding
same,cocaine self-administration (number of cocaine infusions),[3]; [12],did not significantly affect
same,food-maintained responding,[3]; [12],did not significantly affect
c1cnc2cc3c(cc2n1)[C@@H]1CNC[C@H]3C1 [varenicline],quit rates after one year,[7],14%
same,nicotine infusions over the 1-hour test session,"[8]; 1 mg/kg sc, reduced from 15.4±1.0",7.7±1.2
same,"reduction of nicotine self-administration, varenicline compared with the metyrapone:oxazepam combination",[8]; fixed-ratio schedule,comparable to those seen with the lowest dose of the combination

# — US20200360400A1, “COMPOSITIONS AND METHODS FOR THE TREATMENT OF ADDICTION, PSYCHIATRIC DISORDERS, AND NEURODEGENERATIVE DISEASE” (Embera NeuroTherapeutics, Inc., priority 2017, published 2020)
